EC50 and inhibition data for 22 molecules are collected here from patent US6573262B2, “Composition and antiviral activity of substituted indoleoxoacetic piperazine derivatives” (priority 2000, dated 2003).

This experiment concerns HIV-1 single-round infectious reporter virus. Briefly: microbe, parasite or virus in culture. To be noted: for EC50: Human immunodeficiency virus 1, HeLa-CD4/CCR5, 72 h, read-out: EC50 Group from Table 1; for inhibition at 10 µM: Human immunodeficiency virus 1, HeLa-CD4/CCR5, read-out: % Inhibition @ 10 uM. It counts as cell-based.

For `NCCNC(=O)c1ccc(F)c2c(C(=O)C(=O)N3CCN(C(=O)c4ccccc4)CC3)c[nH]c12` [Example 154], the EC50 was less than 1000 nM.
Still for that read-out and setting: the result for `CC(C)Nc1nc(-c2ccc(F)c3c(C(=O)C(=O)N4CCN(C(=O)c5ccccc5)CC4)c[nH]c23)no1` [Example 158] reads less than 1000 nM.
As to `NC(=O)c1ccc(F)c2c(C(=O)C(=O)N3CCN(C(=O)c4ccccc4)CC3)c[nH]c12` [Example 42], the EC50 was less than 1000 nM and the inhibition at 10 µM was more than 98%.
As to `O=C(NCCc1c[nH]c2ccccc12)c1ccc(F)c2c(C(=O)C(=O)N3CCN(C(=O)c4ccccc4)CC3)c[nH]c12` [Example 48], the EC50 is less than 1000 nM and the inhibition at 10 µM was more than 98%.
For the molecule `Nc1nc(-c2ccc(F)c3c(C(=O)C(=O)N4CCN(C(=O)c5ccccn5)CC4)c[nH]c23)no1` [Example 189], the EC50 was less than 1000 nM.
Consider `O=C(C(=O)N1CCN(C(=O)c2ccccc2)CC1)c1c[nH]c2c(-c3nc4ncccc4[nH]3)ccc(F)c12` [Example 165], for which the EC50 was less than 1000 nM.
Same read-out and setting: the result for `NC(=O)c1ccc(F)c2c(C(=O)C(=O)N3CCN(C(=O)c4ccccn4)CC3)c[nH]c12` [Example 184] reads less than 1000 nM.
Regarding `O=C(Nc1nn[nH]n1)c1ccc(F)c2c(C(=O)C(=O)N3CCN(C(=O)c4ccccc4)CC3)c[nH]c12` [Example 54], the EC50 was less than 1000 nM and the inhibition at 10 µM was more than 98%.
For `O=C(C(=O)N1CCN(C(=O)c2ccccc2)CC1)c1c[nH]c2c(-c3ccccn3)ccc(F)c12` [Example 5] the same measures were less than 1000 nM and more than 98%.
For the molecule `CN(C)c1nc(-c2ccc(F)c3c(C(=O)C(=O)N4CCN(C(=O)c5ccccc5)CC4)c[nH]c23)no1` [Example 156], the concentration giving a half-maximal response (EC50) was less than 1000 nM.
On the same count and under the same terms, the result for `CNC(=O)c1cc(-c2ccc(F)c3c(C(=O)C(=O)N4CCN(C(=O)c5ccccc5)CC4)c[nH]c23)[nH]n1` [Example 89] reads less than 1000 nM.
For `O=C(NCc1ccco1)c1ccc(F)c2c(C(=O)C(=O)N3CCN(C(=O)c4ccccc4)CC3)c[nH]c12` [Example 50], the EC50 is less than 1000 nM and the inhibition at 10 µM is more than 98%.
Turning to `COC(=O)c1c[nH]c(-c2ccc(F)c3c(C(=O)C(=O)N4CCN(C(=O)c5ccccc5)CC4)c[nH]c23)n1` [Example 146], the EC50 is less than 1000 nM.
`C[C@@H]1CN(C(=O)c2ccccc2)CCN1C(=O)C(=O)c1c[nH]c2c(-c3nnn(C)n3)ccc(F)c12` [Example 175]: the inhibition at 10 µM is more than 98%.
As for `O=C(C(=O)N1CCN(C(=O)c2ccccc2)CC1)c1c[nH]c2c(-c3ncco3)ccc(F)c12` [Example 73], the concentration giving a half-maximal response (EC50) is less than 1000 nM and the inhibition at 10 µM is more than 98%.
Consider `O=C(NCc1cccs1)c1ccc(F)c2c(C(=O)C(=O)N3CCN(C(=O)c4ccccc4)CC3)c[nH]c12` [Example 51], for which the half-maximal effective concentration (EC50) was less than 1000 nM and the inhibition at 10 µM was more than 98%.
Take `COC(=O)Cn1cnc(-c2ccc(F)c3c(C(=O)C(=O)N4CCN(C(=O)c5ccccc5)CC4)c[nH]c23)n1` [Example 144]: the EC50 is less than 1000 nM.
For the molecule `O=C(NS(=O)(=O)c1ccccc1)c1ccc(F)c2c(C(=O)C(=O)N3CCN(C(=O)c4ccccc4)CC3)c[nH]c12` [Example 40], the EC50 was less than 1000 nM and the inhibition at 10 µM was more than 98%.
For `O=C(C(=O)N1CCN(C(=O)c2ccccc2)CC1)c1c[nH]c2c(-c3nccs3)ccc(F)c12` [Example 14], the EC50 is less than 1000 nM and the inhibition at 10 µM is more than 98%.
Consider `Cc1nc(-c2ccc(F)c3c(C(=O)C(=O)N4CCN(C(=O)c5ccccc5)CC4)c[nH]c23)no1` [Example 80], for which the EC50 is less than 1000 nM and the inhibition at 10 µM was more than 98%.
As for `C[C@@H]1CN(C(=O)c2ccccc2)CCN1C(=O)C(=O)c1c[nH]c2c(C(=O)N3CCN(Cc4ccccc4)CC3)cccc12` [Example 68], the EC50 is less than 1000 nM and the inhibition at 10 µM is more than 98%.
Taken in the same sequence, the figures for `CSc1ccccc1-c1ccc(F)c2c(C(=O)C(=O)N3CCN(C(=O)c4ccccc4)CC3)c[nH]c12` [Example 2] were less than 1000 nM and more than 98%.

One may read the EC50 as the concentration giving half of the maximal effect. Broadly, the inhibition is the relative decrease from the control value, in per cent.
